Where two headings read alike, the source gives them in different places.

Common to all, as to assay: Kinase panel profiling at 1 µmol/L (MSA or IMAP), percentage inhibition
Format in all cases: biochemical

Test [1] addresses panel of 255 wild-type kinases (Homo sapiens, UniProt O75116). The settings on record: read-out: %-inhibition at 1 µmol/L, ROCK2.
Test [2] addresses panel of 255 wild-type kinases (Homo sapiens, UniProt O00311). The settings on record: read-out: %-inhibition CDC7/ASK.
Test [3] has as its target panel of 255 wild-type kinases (Homo sapiens, UniProt O75676). The note with it: read-out: %-inhibition, MSK2.
Test [4] addresses T1, panel of 255 wild-type kinases (Homo sapiens, UniProt Q8TD19).
T1 sequence (Q8TD19 1-979): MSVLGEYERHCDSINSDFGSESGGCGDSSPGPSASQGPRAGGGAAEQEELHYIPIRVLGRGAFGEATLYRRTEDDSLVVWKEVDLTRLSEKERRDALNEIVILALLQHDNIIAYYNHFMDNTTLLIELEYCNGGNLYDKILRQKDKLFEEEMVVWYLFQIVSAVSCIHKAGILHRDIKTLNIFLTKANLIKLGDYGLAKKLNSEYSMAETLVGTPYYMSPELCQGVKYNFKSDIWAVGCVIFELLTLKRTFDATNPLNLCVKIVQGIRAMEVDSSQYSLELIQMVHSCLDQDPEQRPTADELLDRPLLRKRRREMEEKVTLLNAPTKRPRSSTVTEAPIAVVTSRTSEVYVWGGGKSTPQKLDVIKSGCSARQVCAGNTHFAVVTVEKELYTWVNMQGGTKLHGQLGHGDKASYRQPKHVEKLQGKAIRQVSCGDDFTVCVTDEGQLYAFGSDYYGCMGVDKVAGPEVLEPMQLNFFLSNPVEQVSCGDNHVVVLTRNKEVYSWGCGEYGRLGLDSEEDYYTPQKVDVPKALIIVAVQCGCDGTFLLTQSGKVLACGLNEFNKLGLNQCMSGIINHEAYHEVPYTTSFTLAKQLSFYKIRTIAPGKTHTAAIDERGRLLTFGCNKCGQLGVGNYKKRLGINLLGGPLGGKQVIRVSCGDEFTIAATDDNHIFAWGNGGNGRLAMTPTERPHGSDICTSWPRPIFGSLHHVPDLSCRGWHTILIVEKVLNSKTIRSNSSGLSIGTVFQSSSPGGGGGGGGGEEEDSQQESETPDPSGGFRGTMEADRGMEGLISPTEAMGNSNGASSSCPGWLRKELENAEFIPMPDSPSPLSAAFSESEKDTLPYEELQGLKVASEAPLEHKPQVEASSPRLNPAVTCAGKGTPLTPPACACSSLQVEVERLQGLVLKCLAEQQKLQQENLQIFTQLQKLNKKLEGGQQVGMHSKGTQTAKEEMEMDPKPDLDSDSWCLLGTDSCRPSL
The settings on record: read-out: %-inhibition, NEK9.

In test [5] the target is panel of 255 wild-type kinases (Homo sapiens, UniProt Q06187). The settings on record: read-out: %-inhibition BTK.
The target of test [6] is T2, panel of 255 wild-type kinases (Homo sapiens, UniProt Q9H093).
T2 sequence (Q9H093 1-628): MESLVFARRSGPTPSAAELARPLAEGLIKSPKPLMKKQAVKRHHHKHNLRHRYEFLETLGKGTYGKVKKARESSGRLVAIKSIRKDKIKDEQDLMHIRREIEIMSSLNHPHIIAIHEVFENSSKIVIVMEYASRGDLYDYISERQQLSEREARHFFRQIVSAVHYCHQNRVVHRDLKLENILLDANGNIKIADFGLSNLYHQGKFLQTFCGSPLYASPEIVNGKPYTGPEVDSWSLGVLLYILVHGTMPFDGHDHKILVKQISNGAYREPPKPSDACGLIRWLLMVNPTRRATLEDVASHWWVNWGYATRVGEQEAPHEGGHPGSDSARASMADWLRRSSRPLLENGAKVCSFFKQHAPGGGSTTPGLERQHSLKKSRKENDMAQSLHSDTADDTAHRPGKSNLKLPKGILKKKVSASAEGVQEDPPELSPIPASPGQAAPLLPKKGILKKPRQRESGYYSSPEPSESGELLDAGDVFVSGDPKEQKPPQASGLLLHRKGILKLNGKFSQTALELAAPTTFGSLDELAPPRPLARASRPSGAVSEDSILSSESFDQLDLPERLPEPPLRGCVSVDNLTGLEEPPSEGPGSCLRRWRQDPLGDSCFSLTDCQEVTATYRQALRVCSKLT
The settings on record: read-out: %-inhibition, NuaK2.

Test [7] deals with T3, panel of 255 wild-type kinases (Homo sapiens, UniProt Q12851).
T3 sequence (Q12851 1-820): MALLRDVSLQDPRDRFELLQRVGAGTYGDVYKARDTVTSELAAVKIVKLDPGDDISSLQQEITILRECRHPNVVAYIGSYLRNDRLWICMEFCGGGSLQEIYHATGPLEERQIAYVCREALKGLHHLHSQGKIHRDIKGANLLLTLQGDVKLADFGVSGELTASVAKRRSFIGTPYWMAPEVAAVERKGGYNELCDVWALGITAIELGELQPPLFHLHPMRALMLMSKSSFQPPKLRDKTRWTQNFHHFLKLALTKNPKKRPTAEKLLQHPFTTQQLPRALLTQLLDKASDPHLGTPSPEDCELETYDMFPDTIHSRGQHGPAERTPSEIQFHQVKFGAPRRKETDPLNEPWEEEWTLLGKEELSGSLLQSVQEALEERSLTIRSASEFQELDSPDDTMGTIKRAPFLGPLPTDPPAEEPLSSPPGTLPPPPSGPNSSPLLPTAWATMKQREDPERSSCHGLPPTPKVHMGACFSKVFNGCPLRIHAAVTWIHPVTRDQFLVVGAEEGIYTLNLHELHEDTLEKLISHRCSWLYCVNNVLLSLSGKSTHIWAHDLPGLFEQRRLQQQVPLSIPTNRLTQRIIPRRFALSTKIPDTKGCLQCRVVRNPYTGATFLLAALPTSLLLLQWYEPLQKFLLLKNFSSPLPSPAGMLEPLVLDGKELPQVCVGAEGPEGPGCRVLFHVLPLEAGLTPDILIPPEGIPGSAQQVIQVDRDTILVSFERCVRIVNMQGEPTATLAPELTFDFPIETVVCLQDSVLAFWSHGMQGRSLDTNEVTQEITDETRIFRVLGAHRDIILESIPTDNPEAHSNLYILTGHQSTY
The note with it: read-out: %-inhibition at 1 µmol/L, MAP4K2.

Where [8] appears, read: kinase ROCK2, 1 µmol/L single concentration.
Setting [9] is: CDC7/ASK kinase assay, 1 µmol/L single concentration.
The mark [10] stands for this setting: MSK2, 1 µmol/L single concentration.
Setting [11] is: NEK9, 1 µmol/L single concentration.
Where [12] appears, read: BTK kinase assay, 1 µmol/L single concentration.
The mark [13] stands for this setting: NuaK2, 1 µmol/L single concentration.
Setting [14] is: kinase MAP4K2, 1 µmol/L single concentration.

For the compound `Cc1nc(NC(=O)N2CCC[C@H]2C(N)=O)sc1-c1ccnc(C(C)(C)C(F)(F)F)c1` [alpelisib], the inhibition at 1 µM in test [1] (setting [8]) was 0.528%; in test [2] (setting [9]), -0.499%; in test [3] (setting [10]), 0.0558%; in test [4] (setting [11]), 2.8%; in test [5] (setting [12]), -0.621%; in test [6] (setting [13]), 6%. The inhibition at 1 µM in test [7] (setting [14]) worked out at 5.56%.

For the compound `Cn1cc(-c2cc3c(N4CCN(c5ncc([C@@](C)(N)c6ccc(F)cc6)cn5)CC4)ncnn3c2)cn1` [avapritinib], the inhibition at 1 µM in test [1] (setting [8]) is 11%; in test [2] (setting [9]) it was 0.0396%; in test [3] (setting [10]) it was 5%; in test [4] (setting [11]), 30%; in test [5] (setting [12]), 13%; in test [6] (setting [13]), 68%. Moreover, the inhibition at 1 µM in test [7] (setting [14]) was 14%.

In the case of `Cn1cnc2c(F)c(Nc3ccc(Br)cc3F)c(C(=O)NOCCO)cc21` [binimetinib], the inhibition at 1 µM in test [1] (setting [8]) was -4%; in test [2] (setting [9]) it was -0.214%; in test [3] (setting [10]), -3.65%; in test [4] (setting [11]), -6.59%; in test [5] (setting [12]), -3.75%; in test [6] (setting [13]), 0.626%. Besides, in test [7] (setting [14]), the inhibition at 1 µM was -1.27%.

Take `CNC(=O)c1ccc(-c2cnc3ncc(Cc4ccc5ncccc5c4)n3n2)cc1F` [capmatinib]: the inhibition at 1 µM was -0.288% in test [1]; -1.4% in test [2]; 1.25% in test [3]; -1.11% in test [4]; 8% in test [5]; -1% in test [6]. Also, in test [7], the inhibition at 1 µM was -0.216%.

In the case of `COc1cc2ncnc(Nc3ccc(F)c(Cl)c3)c2cc1NC(=O)/C=C/CN1CCCCC1` [dacomitinib], the inhibition at 1 µM in test [1] (setting [8]) is -4.35%; in test [2] (setting [9]) it was 0.799%; in test [3] (setting [10]) it was 6%; in test [4] (setting [11]), -1.05%; in test [5] (setting [12]), 43%; in test [6] (setting [13]), 2%. The inhibition at 1 µM in test [7] (setting [14]) was -2.38%.

On to `C[C@H](Nc1ncnc2nc[nH]c12)c1cc2cccc(Cl)c2c(=O)n1-c1ccccc1` [duvelisib], for which the inhibition at 1 µM was -0.18% in test [1] (setting [8]); 0.486% in test [2] (setting [9]); -1.39% in test [3] (setting [10]); 1.7% in test [4] (setting [11]); 1.85% in test [5] (setting [12]); 3.49% in test [6] (setting [13]). In addition, the inhibition at 1 µM in test [7] (setting [14]) is 2.36%.

As to `COC(=O)N[C@@H](C)CNc1nccc(-c2cn(C(C)C)nc2-c2cc(Cl)cc(NS(C)(=O)=O)c2F)n1` [encorafenib], the inhibition at 1 µM is 1.32% in test [1] (setting [8]); -4.28% in test [2] (setting [9]); -4% in test [3] (setting [10]); -4.26% in test [4] (setting [11]); -1.36% in test [5] (setting [12]); 3.35% in test [6] (setting [13]). For the same compound, the inhibition at 1 µM in test [7] (setting [14]) was found to be 4%.

On to `CN1CCN(c2ccc(C(=O)Nc3n[nH]c4ccc(Cc5cc(F)cc(F)c5)cc34)c(NC3CCOCC3)c2)CC1` [entrectinib], for which the inhibition at 1 µM in test [1] (setting [8]) was found to be 7%; in test [2] (setting [9]) it was 0.952%; in test [3] (setting [10]) it was 2.7%; in test [4] (setting [11]), 17%; in test [5] (setting [12]), 97%; in test [6] (setting [13]), 95%. Besides, in test [7] (setting [14]), the inhibition at 1 µM turned out to be 85%.

Turning to `CCc1nc(C(N)=O)c(Nc2ccc(N3CCC(N4CCN(C)CC4)CC3)c(OC)c2)nc1NC1CCOCC1` [gilteritinib], the inhibition at 1 µM in test [1] (setting [8]) is 66%; in test [2] (setting [9]), 3%; in test [3] (setting [10]) it was 6%; in test [4] (setting [11]), 21%; in test [5] (setting [12]), 81%; in test [6] (setting [13]), 73%. The inhibition at 1 µM in test [7] (setting [14]) amounted to 99%.

Take `CCN1CCN(c2ccc(Nc3cc(N(C)C(=O)Nc4c(Cl)c(OC)cc(OC)c4Cl)ncn3)cc2)CC1` [infigratinib]: the inhibition at 1 µM in test [1] (setting [8]) is -0.775%; in test [2] (setting [9]), -2%; in test [3] (setting [10]), -0.703%; in test [4] (setting [11]), 10%; in test [6] (setting [13]), 9%; in test [7] (setting [14]), 23%.

In the case of `O=C(Nc1cnn2ccc(N3CCC[C@@H]3c3cc(F)ccc3F)nc12)N1CC[C@H](O)C1` [larotrectinib], the inhibition at 1 µM is -3.33% in test [1] (setting [8]); -3.24% in test [2] (setting [9]); -3.36% in test [3] (setting [10]); -4.43% in test [4] (setting [11]); -3.71% in test [5] (setting [12]); 0.385% in test [6] (setting [13]). The inhibition at 1 µM in test [7] (setting [14]) was -2%.

For `C[C@H]1Oc2cc(cnc2N)-c2c(nn(C)c2C#N)CN(C)C(=O)c2ccc(F)cc21` [lorlatinib], the inhibition at 1 µM in test [1] (setting [8]) was 3.28%; in test [2] (setting [9]) it was -2%; in test [3] (setting [10]) it was -3.24%; in test [4] (setting [11]), 6%; in test [5] (setting [12]) it was 1.48%; in test [6] (setting [13]), 30%. The inhibition at 1 µM in test [7] (setting [14]) was 20%.

For the compound `C=CC(=O)N1CCC([C@@H]2CCNc3c(C(N)=O)c(-c4ccc(Oc5ccccc5)cc4)nn32)CC1` [zanubrutinib], the inhibition at 1 µM was -3.24% in test [1] (setting [8]); -4% in test [2] (setting [9]); -4% in test [3] (setting [10]); -2% in test [4] (setting [11]); 0.524% in test [6] (setting [13]); -2.68% in test [7] (setting [14]).

Source of the values: publication PMC9516332 (Frontiers in Oncology, 2022).
